In brackets after ≈: the same amount, converted by molar mass. Activity calls are given as the source filed them. The calls are words filed in the database; no cut-off is given here.
Legend:
[1] = Drug uptake in human MCF7 cells assessed per mg protein at 10 uM incubated for 24 hrs by fluorescence assay; format: ADME, cell-based; settings: mcf7, 24 h
Estrogen receptor beta [2] = target: T1, Estrogen receptor beta (Homo sapiens, UniProt Q92731); assay: Agonist activity at recombinant human GST-tagged ERbeta assessed as increase in fluorescein-labelled coactivator PGC1 peptide recruitment at 1 uM by LanthaScreen TR-FRET assay
Estrogen receptor beta [3] = target: T1, Estrogen receptor beta; assay: Antagonist activity at recombinant human GST-tagged ERbeta assessed as inhibition of E2-induced increase in fluorescein-labelled coactivator PGC1 peptide recruitment at 100 nM measured after 30 mins by LanthaScreen TR-FRET assay relative to control; settings: filed as antagonist
Estrogen receptor beta [4] = target: T1, Estrogen receptor beta; assay: Antagonist activity at recombinant human GST-tagged ERbeta assessed as inhibition of E2-induced increase in fluorescein-labelled coactivator PGC1 peptide recruitment at 1 uM measured after 10 to 30 mins by LanthaScreen TR-FRET assay relative to control; settings: filed as antagonist, time 10-30 min
Estrogen receptor [5] = target: T2, Estrogen receptor (Homo sapiens, UniProt P03372); assay: Agonist activity at ERalpha (unknown origin) expressed in human U2OS cells at 0.1 to 1 uM measured after 21 hrs by dual luciferase reporter gene assay; format: cell-based; settings: dose 0.1-1 µM
T2 sequence (P03372 whole entry): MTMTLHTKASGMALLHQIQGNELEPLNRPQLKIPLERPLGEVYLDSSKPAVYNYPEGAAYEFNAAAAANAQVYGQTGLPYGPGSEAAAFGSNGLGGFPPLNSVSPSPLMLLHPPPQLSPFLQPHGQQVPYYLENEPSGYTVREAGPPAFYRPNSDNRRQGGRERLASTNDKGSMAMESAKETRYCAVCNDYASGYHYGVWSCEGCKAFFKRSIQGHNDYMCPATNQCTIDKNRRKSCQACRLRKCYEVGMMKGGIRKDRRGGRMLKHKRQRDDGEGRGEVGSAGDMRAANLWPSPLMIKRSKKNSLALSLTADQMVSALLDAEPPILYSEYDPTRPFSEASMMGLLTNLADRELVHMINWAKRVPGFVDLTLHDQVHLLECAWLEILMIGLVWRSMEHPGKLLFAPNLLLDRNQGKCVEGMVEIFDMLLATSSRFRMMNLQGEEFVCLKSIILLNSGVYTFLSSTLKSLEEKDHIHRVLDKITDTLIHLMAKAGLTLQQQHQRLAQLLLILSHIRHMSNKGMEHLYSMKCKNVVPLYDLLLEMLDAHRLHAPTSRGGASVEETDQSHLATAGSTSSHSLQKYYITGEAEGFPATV

Estrogen receptor beta [6] = target: T1, Estrogen receptor beta; assay: Agonist activity at ERbeta (unknown origin) expressed in human U2OS cells at 0.1 to 1 uM measured after 21 hrs by dual luciferase reporter gene assay; format: cell-based; settings: dose 0.1-1 µM
[7] = Drug uptake in African green monkey COS7 cells assessed per mg protein at 10 uM incubated for 24 hrs by fluorescence assay; format: ADME; settings: chlorocebus aethiops, cos-7, 24 h
COS-7 [8] = assay: Cytotoxicity against African green monkey COS7 cells assessed as reduction in cell metabolic activity up to 20 uM measured after 72 hrs by modified MTT based EZ4U assay; format: ADME; settings: chlorocebus aethiops, cos-7, 72 h
Estrogen receptor [9] = target: T2, Estrogen receptor
Estrogen receptor beta [10] = target: T1, Estrogen receptor beta
Estrogen receptor [11] = target: T2, Estrogen receptor; remark: listed apart in the source
Estrogen receptor beta [12] = target: T1, Estrogen receptor beta; remark: listed apart in the source
physchem = settings: water
Description: Aqueous solubility of compound in water

MDA-MB-231 [13] = assay: Antiproliferative activity against human MDA-MB-231 cells assessed as reduction in cell mass at 10 uM measured after 72 hrs by crystal violet staining based assay relative to control; format: functional; set-up: scale not given: the % may be the effect or the level left
SK-BR-3 [14] = assay: Antiproliferative activity against human SK-BR-3 cells assessed as reduction in cell mass at 10 uM measured after 72 hrs by crystal violet staining based assay relative to control; format: functional; set-up: scale not given: the % may be the effect or the level left
MDA-MB-231 [15] = assay: Antiproliferative activity against human MDA-MB-231 cells assessed as cell mass at 20 uM measured after 72 hrs by crystal violet staining based assay relative to control; format: functional
SK-BR-3 [16] = assay: Antiproliferative activity against human SK-BR-3 cells assessed as cell mass at 20 uM measured after 72 hrs by crystal violet staining based assay relative to control; format: functional
MCF7 [17] = assay: cells; settings: Homo sapiens, MCF7, 72 h
Description: Antiproliferative activity against human MCF7 cells assessed as reduction in cell mass measured after 72 hrs by crystal violet staining based assay

COS-7 [18] = assay: cells; settings: Chlorocebus aethiops, COS-7, 72 h
Description: Cytotoxicity against African green monkey COS7 cells assessed as reduction in cell mass measured after 72 hrs by crystal violet staining based assay

MCF7 [19] = assay: Antiproliferative activity against human MCF7 cells assessed as reduction in cell metabolic activity at 10 uM measured after 72 hrs by modified MTT based EZ4U assay relative to control; format: functional; set-up: scale not given: the % may be the effect or the level left
COS-7 [20] = assay: Cytotoxicity against African green monkey COS7 cells assessed as reduction in cell metabolic activity up to 10 uM measured after 72 hrs by modified MTT based EZ4U assay; format: ADME; settings: chlorocebus aethiops, cos-7, 72 h
[21] = target: T3, Estrogen receptor (Homo sapiens) (UniProt P03372); assay: Selective estrogen receptor alpha degrader activity in human MCF7 cells assessed as down regulation of ERalpha expression at 1 uM measured after 4 hrs in presence of protease inhibitor MG-132 by Western blot analysis; format: cell-based
T3 sequence (whole entry): T2 sequence (P03372 whole entry)

Estrogen receptor beta [22] = target: T1, Estrogen receptor beta; assay: Antagonist activity at recombinant human GST-tagged ERbeta assessed as inhibition of E2-induced increase in fluorescein-labelled coactivator PGC1 peptide recruitment at 1 uM measured after 10 mins by LanthaScreen TR-FRET assay; settings: filed as antagonist
Estrogen receptor beta [23] = target: T1, Estrogen receptor beta; assay: Antagonist activity at recombinant human GST-tagged ERbeta assessed as inhibition of E2-induced increase in fluorescein-labelled coactivator PGC1 peptide recruitment at 5 uM measured after 30 mins by LanthaScreen TR-FRET assay relative to control; settings: filed as antagonist
MCF7 [24] = assay: Antiproliferative activity against human MCF7 cells assessed as cell mass at 10 uM measured after 72 hrs by crystal violet staining based assay relative to control; format: functional
MCF7 [25] = assay: Antiproliferative activity against human MCF7 cells assessed as reduction in cell metabolic activity up to 10 uM measured after 72 hrs by modified MTT based EZ4U assay; format: functional; settings: dose microM <=10, time 72.0 hrs
MCF7 [26] = assay: Antiproliferative activity against human MCF7 cells assessed as cell mass at 50 nM measured after 72 hrs by crystal violet staining based assay relative to control; format: functional

T1 sequence (Q92731 whole entry): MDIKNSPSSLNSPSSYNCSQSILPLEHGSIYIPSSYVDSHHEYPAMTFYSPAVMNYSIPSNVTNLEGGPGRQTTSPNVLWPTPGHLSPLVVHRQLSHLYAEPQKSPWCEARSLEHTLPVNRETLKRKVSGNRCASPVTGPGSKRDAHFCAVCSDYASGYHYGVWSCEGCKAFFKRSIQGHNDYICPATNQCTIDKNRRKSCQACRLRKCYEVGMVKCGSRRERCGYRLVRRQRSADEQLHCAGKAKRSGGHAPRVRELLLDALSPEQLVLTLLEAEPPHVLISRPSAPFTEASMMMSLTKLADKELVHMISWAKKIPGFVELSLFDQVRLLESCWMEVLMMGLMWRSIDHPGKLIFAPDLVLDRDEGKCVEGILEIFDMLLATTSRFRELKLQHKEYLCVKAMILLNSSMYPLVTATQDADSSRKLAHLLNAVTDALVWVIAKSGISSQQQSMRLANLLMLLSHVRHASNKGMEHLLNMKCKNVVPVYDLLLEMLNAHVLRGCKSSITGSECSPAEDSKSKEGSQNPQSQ

| Activity (Estrogen receptor beta [2]) | Activity (Estrogen receptor [5]) | Activity (Estrogen receptor beta [6]) | IC50 (Estrogen receptor [9]) | IC50 (Estrogen receptor beta [10]) | IC50 (Estrogen receptor [11]) | IC50 (Estrogen receptor beta [12]) | solubility (physchem) | SMILES | inhibition (Estrogen receptor beta [3]) | Activity (COS-7 [8]) | Activity (COS-7 [20]) | also measured |
| --- | --- | --- | --- | --- | --- | --- | --- | --- | --- | --- | --- | --- |
| Not Active | Not Active | Not Active | 18.9 nM | 44 nM | 290 nM | 215 nM | 19 µM (≈ 15.1 µg/mL) | CC/C(=C(/c1ccc(O)cc1)c1ccc(/C=C/C(=O)NCCCCNC(=O)/C=C/c2ccc(/C(=C(\CC)c3ccccc3)c3ccc(O)cc3)cc2)cc1)c1ccccc1 | 50% | Non-Toxic | – | Drug uptake [1]: 4.67 nmol; inhibition (Estrogen receptor beta [4]): 100%; Drug uptake [7]: 3.92 nmol |
| – | – | – | – | – | – | – | – | CC/C(=C(/c1ccc(O)cc1)c1ccc(OCCN(C)C)cc1)c1ccccc1 | – | Non-Toxic | – | Activity (MDA-MB-231 [13]): 79%; Activity (SK-BR-3 [14]): 58%; T/C (MDA-MB-231 [15]): -80%; T/C (SK-BR-3 [16]): -81%; IC50 (MCF7 [17]): 4940 nM; IC50 (COS-7 [18]): 8690 nM |
| Not Active | Not Active | Not Active | 1.28 nM | 22.2 nM | 136 nM | 153 nM | 24 µM (≈ 18.7 µg/mL) | CC/C(=C(/c1ccc(O)cc1)c1ccc(/C=C/C(=O)NCCCNC(=O)/C=C/c2ccc(/C(=C(\CC)c3ccccc3)c3ccc(O)cc3)cc2)cc1)c1ccccc1 | 50% | – | – | inhibition (Estrogen receptor beta [4]): 100%; Activity [21]: Active |
| – | – | – | – | – | – | – | – | CC/C(=C(\c1ccc(O)cc1)c1ccc(/C=C/C(=O)O)cc1)c1ccccc1 | – | – | Non-Toxic | inhibition (Estrogen receptor beta [22]): Active; inhibition (Estrogen receptor beta [23]): 50%; Activity [21]: inactive; T/C (MCF7 [24]): 33%; Activity (MCF7 [25]): inactive |
| – | – | – | – | – | – | – | – | C[C@]12CC[C@@H]3c4ccc(O)cc4C[C@@H](CCCCCCCCC[S+]([O-])CCCC(F)(F)C(F)(F)F)[C@H]3[C@@H]1CC[C@@H]2O (some centres undefined) [FULVESTRANT] | – | Non-Toxic | – | T/C (MCF7 [24]): 75.5%; T/C (MCF7 [26]): 64%; IC50 (MCF7 [17]): 4930 nM; IC50 (COS-7 [18]): 34000 nM |
| Not Active | – | Not Active | – | 15.5 nM | – | 256 nM | 34 µM (≈ 27.4 µg/mL) | CC/C(=C(/c1ccc(O)cc1)c1ccc(/C=C/C(=O)NCCCCCNC(=O)/C=C/c2ccc(/C(=C(\CC)c3ccccc3)c3ccc(O)cc3)cc2)cc1)c1ccccc1 | – | – | – | – |
| Not Active | – | Not Active | – | 27.5 nM | – | 216 nM | 6.5 µM (≈ 4.5 µg/mL) | O=C(/C=C/c1ccc(C(=C2CCCCC2)c2ccc(O)cc2)cc1)NCCNC(=O)/C=C/c1ccc(C(=C2CCCCC2)c2ccc(O)cc2)cc1 | – | – | – | – |
| – | Not Active | – | – | – | – | – | – | CC/C(=C(/c1ccc(O)cc1)c1ccc(/C=C/C(=O)NCCN)cc1)c1ccccc1.O=C(O)C(F)(F)F.O=C(O)C(F)(F)F.O=C(O)C(F)(F)F | – | Non-Toxic | – | Drug uptake [1]: 35.3 nmol; Drug uptake [7]: 33.7 nmol |
| Not Active | Not Active | Not Active | 15.1 nM | 67.7 nM | 260 nM | 78.7 nM | > 40 µM | CC/C(=C(/c1ccc(O)cc1)c1ccc(/C=C/C(=O)NCCNC(=O)/C=C/c2ccc(/C(=C(\CC)c3ccccc3)c3ccc(O)cc3)cc2)cc1)c1ccccc1 | – | Non-Toxic | – | – |

| SMILES | Activity (Estrogen receptor beta [2]) | Activity (Estrogen receptor [5]) | Activity (Estrogen receptor beta [6]) | IC50 (Estrogen receptor [9]) | IC50 (Estrogen receptor beta [10]) | IC50 (Estrogen receptor [11]) | IC50 (Estrogen receptor beta [12]) | solubility (physchem) | inhibition (Estrogen receptor beta [3]) | Activity (COS-7 [8]) | Activity (COS-7 [20]) | also measured |
| --- | --- | --- | --- | --- | --- | --- | --- | --- | --- | --- | --- | --- |
| O=C(/C=C/c1ccc(C(=C2CCCCC2)c2ccc(O)cc2)cc1)NCCCCCNC(=O)/C=C/c1ccc(C(=C2CCCCC2)c2ccc(O)cc2)cc1 | – | – | – | – | – | – | – | 10 µM (≈ 7.35 µg/mL) | – | – | Non-Toxic | Activity (MCF7 [19]): 50% |
| O=C(/C=C/c1ccc(C(=C2CCCCC2)c2ccc(O)cc2)cc1)NCCCNC(=O)/C=C/c1ccc(C(=C2CCCCC2)c2ccc(O)cc2)cc1 | Not Active | Not Active | Not Active | 1.67 nM | 34 nM | 565 nM | 304 nM | 15.4 µM (≈ 10.9 µg/mL) | 50% | – | Non-Toxic | Activity (MCF7 [19]): 53% |
| O=C(/C=C/c1ccc(C(=C2CCCCC2)c2ccc(O)cc2)cc1)NCCCCNC(=O)/C=C/c1ccc(C(=C2CCCCC2)c2ccc(O)cc2)cc1 | Not Active | – | Not Active | – | 15.7 nM | – | 54.8 nM | 10 µM (≈ 7.21 µg/mL) | 50% | – | Non-Toxic | Drug uptake [1]: 5.22 nmol; Drug uptake [7]: 11.7 nmol; Activity (MCF7 [19]): 69% |
